Results taken from patent publication US20240109839A1, “NOVEL COMPOUND EXHIBITING ANTI-INFLAMMATORY ACTIVITY AS P38 MAP KINASE INHIBITOR” (PRAZERTHERAPEUTICS INC., priority 2021, published 2024).

What was measured:
p38 alpha = p38 alpha (Homo sapiens, UniProt Q16539); test: Evaluation of inhibitory ability of p38a mitogen-activated protein kinase (MAPK); type: biochemical; details: Serine/Threonine 15 peptide, 1 hour at room temperature, read at 445 nm and 520 nm
Experimental: To identify the ability to inhibit p38 MAPK, compounds 1 to 15 were diluted to identify the inhibitory effect according to concentration. Briefly, the compounds were diluted at concentrations of […], respectively, and then a peptide/kinase mixture (final 7.07-28.3 ng p38 alpha, 2 μM Serine/Threonine 15, 50 mM HEPES pH 7.0, 0.01% NaN3) and ATP solution were added. After carrying out a reaction at room temperature for 1 hour, a development reagent was added, and a reaction was performed again at room temperature for 1 hour.

p-p38 MAPK = molecular target: T1, p-p38 MAPK (Mus musculus, UniProt P47811); test: Evaluation of p38 MAPK protein inhibitory ability in cells (p-p38 immunoblot); type: cell-based; details: 10 μM compound, 24 hours; for inhibition at 10 µM: RAW264.7, Raw264.7 cells; for p-p38 inhibition %: Raw264.7 cells, 10 µM
T1 construct: endogenous in cells; host or cells: Raw264.7
T1 sequence (P47811 whole entry): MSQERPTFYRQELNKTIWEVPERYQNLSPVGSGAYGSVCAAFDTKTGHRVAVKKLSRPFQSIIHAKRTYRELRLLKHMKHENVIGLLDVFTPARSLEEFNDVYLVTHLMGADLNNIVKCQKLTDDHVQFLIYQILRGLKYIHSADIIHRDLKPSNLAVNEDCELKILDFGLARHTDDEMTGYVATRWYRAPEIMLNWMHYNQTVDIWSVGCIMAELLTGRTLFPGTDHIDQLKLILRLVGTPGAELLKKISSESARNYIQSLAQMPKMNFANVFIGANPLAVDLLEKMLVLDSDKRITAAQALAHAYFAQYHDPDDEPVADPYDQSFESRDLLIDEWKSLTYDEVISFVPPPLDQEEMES
Experimental: To identify inhibition of p-p38 MAPK, inhibition of p38 MAPK was identified after each compound was treated to Raw264.7 cells obtained by transforming macrophages into cancerous cells that cause inflammation according to p-p38 MAPK activity. Briefly, Raw264.7 cells were cultured in Dulbecco's modified Eagle Medium supplemented with 10% fetal bovine serum and penicillin/streptomycin (100 U/ml). Raw 264.7 cells were treated with 10 μM of compounds 1 to 15 according to the present disclosure in a petri dish respectively, followed by culture in a CO2 incubator for 24 hours. The effect of each compound on inhibition of p-p38 MAPK in cells was identified through protein immunoblot.
After completion of cell culture under the experimental conditions, washing was performed with cold phosphate buffered saline (PBS). The cells were then collected and centrifuged at 1200 rpm for 3 minutes. The precipitate was dissolved in cells with 2× sample buffer (1M Tris-HCl pH 6.8, 50% glycerol, 10% SDS, 2-mercaptoethanol, 1% bromophenol blue) and boiled at 100° C. for 10 minutes. The prepared protein samples were subjected to sodium dodecyl sulfate poly acrylamide gel electrophoresis and then transferred to PVDF membrane (Millipore). Blocking was performed in a 5% bovine serum albumin (BSA, RMbio) solution for a specific coupling reaction between the protein on the PVDF membrane and antibody. The BSA solution was then discarded, and the membrane was washed with PBS-T (0.5% tween 20 in PBS). The coupling reaction between the protein on the membrane and antibody was carried out overnight at 4° C., followed by washing again with PBS-T. Finally, a secondary antibody (Cell signaling Technology) conjugated with horseradish peroxidase (HRP) was diluted in PBS-T, and a reaction was carried out at room temperature for 2 hours. Luminata Forte HRP substrate (Millipore) was used to determine the protein amount on the membrane.

Raw264.7 cells = test: Evaluation of nitric oxide inhibitory ability according to cellular inflammatory response (Griess reagent); type: cell-based; details: 10 μM compound, 550 nm; for inhibition at 10 µM: Mus musculus, RAW264.7, 24 h, read-out: NO inhibition (%); for NO inhibition (%): 24 hours, 10 µM
Experimental: In order to identify an inflammatory inhibitory effect upon inhibition of p-p38 MAPK, each compound was treated to Raw264.7 cells obtained by transforming macrophages into cancerous cells involved in the inflammatory response, so as to identify inhibition of inflammation due to inhibition of p38 MAPK. Briefly, Raw264.7 cells were cultured in Dulbecco's Modified Eagle Medium supplemented with 10% fetal bovine serum and penicillin/streptomycin (100 U/ml). Raw 264.7 cells were treated with 10 μM of compounds 1 to 15 according to the present disclosure in a petri dish respectively, followed by culture in a CO2 incubator for 24 hours.
After completion of cell culture under experimental conditions, the supernatant was obtained and centrifuged at 1200 rpm for 3 minutes. The centrifuged supernatant was mixed with Griess reagent (1% sulfanilamide, 0.1% N-(1-naphthyl)ethylenediamine dihydrochloride, 5% phosphoric acid) at 1:1 and then a reaction was performed for 10 minutes under shaded condition. The concentration of nitric oxide was determined at a wavelength of 550 nm.

Chain of p38 alpha (Q16539 whole entry): as the sequence (P47811 whole entry) above, with H48L, A263T counted along it

IC50 (p38 alpha) [nM]	inhibition at 10 µM (p-p38 MAPK) [%]	p-p38 inhibition % (p-p38 MAPK) [%]	SMILES	inhibition at 10 µM (Raw264.7 cells) [%]	NO inhibition (%) (Raw264.7 cells)
72.6	87.6	–	Cc1ccc(C(=O)NC2CC2)cc1-c1ccc(C(=O)C2CCCCC2)cc1 [Compound 7, 4′-(cyclohexanecarbonyl)-N-cyclopropyl-6-methyl-[1,1′-biphenyl]-3-carboxamide]	15.5	–
50.7	–	–	COCCCC(C)C(=O)c1ccc(-c2cc(C(=O)NC3CC3)ccc2C)cc1 (stereo not drawn) [Compound 3, N-cyclopropyl-4′-(5-methoxy-2-methylpentanoyl)-6-methyl-[1,1′-biphenyl]-3-carboxamide]	–	–
21.9	–	–	COCCC(C)C(=O)c1ccc(-c2cc(C(=O)NC3CC3)ccc2C)cc1 (stereo not drawn) [Compound 2, N-cyclopropyl-4′-(4-methoxy-2-methylbutanoyl)-6-methyl-[1,1′-biphenyl]-3-carboxamide]	–	–
27.8	–	41.9	Cc1ccc(C(=O)NC2CC2)cc1-c1ccc(C(=O)C2CCC(OCCO)C2)cc1 (stereo not drawn) [11 (syn isomer), N-cyclopropyl-4′-(3-(2-hydroxyethoxy)cyclopentanecarbonyl)-6-methyl-[1,1′-biphenyl]-3-carboxamide]	–	30.6
46.6	83	–	Cc1ccc(C(=O)NC2CC2)cc1-c1ccc(C(=O)C2CCCCCC2)cc1 [Compound 8, 4′-(cycloheptanecarbonyl)-N-cyclopropyl-6-methyl-[1,1′-biphenyl]-3-carboxamide]	43.6	–
22.5	44.7	–	Cc1ccc(C(=O)NC2CC2)cc1-c1ccc(C(=O)C2CCC(O)C2)cc1 (stereo not drawn) [Compound 10, N-cyclopropyl-4′-(3-hydroxycyclopentanecarbonyl)-6-methyl-[1,1′-biphenyl]-3-carboxamide]	11.1	–
58.4	–	64.1	Cc1ccc(C(=O)NC2CC2)cc1-c1ccc(C(=O)C2CCC(OCCO)C2)cc1 (stereo not drawn) [11 (anti isomer), N-cyclopropyl-4′-(3-(2-hydroxyethoxy)cyclopentanecarbonyl)-6-methyl-[1,1′-biphenyl]-3-carboxamide]	–	11.0
39.2	20.9	–	Cc1ccc(C(=O)NC2CC2)cc1-c1ccc(C(=O)C2CC2)cc1 [Compound 4, 4′-(cyclopropanecarbonyl)-N-cyclopropyl-6-methyl-[1,1′-biphenyl]-3-carboxamide]	26	–
46.5	81.7	–	Cc1ccc(C(=O)NC2CC2)cc1-c1ccc(C(=O)C2CC=CC2)cc1 [Compound 9, 4′-(cyclopent-3-enecarbonyl)-N-cyclopropyl-6-methyl-[1,1′-biphenyl]-3-carboxamide]	21.1	–
71.8	–	–	Cc1ccc(C(=O)NC2CC2)cc1-c1ccc(C(=O)C(C)(C)O)cc1 [Compound 1, N-cyclopropyl-4′-(2-hydroxy-2-methylpropanoyl)-6-methyl-[1,1′-biphenyl]-3-carboxamide]	–	–
50.8	–	–	Cc1ccc(C(=O)NC2CC2)cc1-c1ccc(C(=O)C(C)O)cc1 (stereo not drawn) [Compound 13, N-cyclopropyl-4′-(2-hydroxypropanoyl)-6-methyl-[1,1′-biphenyl]-3-carboxamide]	–	–
158	79.2	–	COCCN1CCC(C(=O)c2ccc(-c3cc(C(=O)NC4CC4)ccc3C)cc2)C1 (stereo not drawn) [Compound 15, N-cyclopropyl-4′-(1-(2-methoxyethyl)pyrrolidine-3-carbonyl)-6-methyl-[1,1′-biphenyl]-3-carboxamide]	–	–
21.8	–	–	COCCOC1CCC(C(=O)c2ccc(-c3cc(C(=O)NC4CC4)ccc3C)cc2)C1 (stereo not drawn) [Compound 12, N-cyclopropyl-4′-(3-(2-methoxyethoxy)cyclopentane-1-carbonyl)-6-methyl-[1,1′-biphenyl]-3-carboxamide]	–	–
86.7	80.4	–	Cc1ccc(C(=O)NC2CC2)cc1-c1ccc(C(=O)C2CCC2)cc1 [Compound 5, 4′-(cyclobutanecarbonyl)-N-cyclopropyl-6-methyl-[1,1′-biphenyl]-3-carboxamide]	11.9	–
128	76.2	–	Cc1ccc(C(=O)NC2CC2)cc1-c1ccc(C(=O)C2CCCC2)cc1 [Compound 6, 4′-(cyclopentanecarbonyl)-N-cyclopropyl-6-methyl-[1,1′-biphenyl]-3-carboxamide]	24	–

SMILES	IC50 (p38 alpha) [nM]	inhibition at 10 µM (p-p38 MAPK) [%]	p-p38 inhibition % (p-p38 MAPK) [%]	inhibition at 10 µM (Raw264.7 cells) [%]	NO inhibition (%) (Raw264.7 cells)
Cc1ccc(C(=O)NC2CC2)cc1-c1ccc(C(=O)C2CCNC2)cc1 (stereo not drawn) [Compound 14, N-cyclopropyl-6-methyl-4′-(pyrrolidine-3-carbonyl)-[1,1′-biphenyl]-3-carboxamide]	126	88.6	–	–	–
